Test results reported in paper PMC7934871 (JCI Insight, 2021).
Non-standard residues stand in square brackets, D forms with d. No end group written: not given here. pY = N[C@@H](Cc1ccc(OP(=O)(O)O)cc1)C(=O)O

What was measured:
p53 promoter = test: Luciferase reporter gene assay, p53 promoter; assay type: cell-based, human; settings: HCT116, 1 μM, overnight at 37°C
Excerpt: Figure 3 PS-acet.-STAT3 peptide inhibits STAT3 activity and downregulates the expression of STAT3 targets. (A) Downregulation of STAT3 activity and its downstream target proteins shown in human HCT116 colorectal cancer cells by Western blotting (data represent 1 of the 3 experiments, n = 3). PO-acet.-STAT3 and PS-STAT3-K685R peptides were used in parallel as controls. (B) STAT3 inhibition regulated the expression of proliferation and apoptotic genes, assessed by real-time quantitative PCR. Data present mean ± SD, n = 3 independent experiments, 1-way ANOVA; ***P < 0.005; **P < 0.01. […] For p53 promoter assay, data represent 3 replicates in 3 independent experiments (n = 9). For cell proliferation assay, data represent 3 independent experiments. SD is shown (n = 3). One-way ANOVA; ***P < 0.005; **P < 0.01.
A total of 1–2 × 10^6 HCT116 cells were seeded into each well of a 24-well plate (Cellstar) and transfected with a 13x RGC plasmid, with a Renilla luciferase construct (both plasmids provided by Bernhard Lüscher, RWTH, Aachen, Germany), using Lipofectamine 2000 (Invitrogen, Thermo Fisher Scientific), according to manufacturer’s instruction. On the following day, cells were treated with 1 μM of PO- and PS-acet.-STAT3 peptides at 37°C overnight. Luciferase activities were determined using the luciferase assay system (Promega).

B16 melanoma = B16 melanoma lung metastasis in C57BL/6 mice; assay type: in vivo, mouse
Excerpt: Figure 7 PS-acet.-STAT3 peptide treatment efficiently reduces mouse melanoma lung metastasis. (A) Systemic PS-acet.-STAT3 peptide treatment reduces B16 lung nodules in syngeneic mouse model compared with control treatments. The B16 lung nodules in mice treated with the indicated STAT3 peptides and vehicle (n = 5) were visualized by IF staining of gp100 and quantified by confocal microscopy and Zen software. The levels of phosphorylation of STAT3 (p-STAT3), CD69, and Foxp3 in the tumor or tumor-infiltrating CD8^+ T or CD4^+ T cells were detected by IF staining followed by confocal microscopy in B16 metastatic lung nodules upon treatments with vehicle, PO- or PS-acet.-STAT3, PS-STAT3-K685R, or PS-unacet.-STAT3 peptides as indicated. Images are representative of 5 lungs per experimental group. Scale bars: 20 μm (CD69, CD8, CD4, p-STAT3, and Foxp3) and 100 μm (gp100). White arrows indicate the immune cells. Insets: original magnification, ×40. (B) The graphs show the quantification of gp100 and p-STAT3 expression levels (MFI) or the cell population (%) of CD69^+ in CD8^+ or p-STAT3^+ in CD4^+ or Foxp3^+ in CD4^+ (data represent 5 lungs per group, n = 5). SD is shown. One-way ANOVA; ****P < 0.001.
(§1) Mouse care and experimental procedures were performed under pathogen-free conditions in accordance with established institutional guidance and approved IACUC protocols from Research Animal Care Committee of the City of Hope. For s.c. tumor challenge, 5 × 10^6 HCT116 cells were injected into NSG mice from The Jackson Laboratory or animal resource core facility at the City of Hope. After tumors reached an average size of 80~100 mm^3, mice were locally or intravenously treated with 1 mg/kg of PO- or PS-peptides (Anaspec) every day or every other day. Control animals were treated with the equal volume of HBSS (Invitrogen, Thermo Fisher Scientific). Tumor growth was measured by a digital caliper every other day. To study the effects of the modified peptides at protein and gene levels, mice were euthanized 4–6 weeks after tumor injection. B16 melanoma lung metastasis was performed by injecting 0.5 × 10^6 B16 cells into bloodstream of C57BL/6 mice (The Jackson Laboratory). One day after tumor challenge, mice were treated intravenously (retro-orbitally) with 1 mg/kg of PO- or PS-acet.-STAT3, PS-unacet.-STAT3, or PS-STAT3-K685R peptides every other day until the endpoint as indicated. Control mice were treated with HBSS. Lungs were excised from the mice, and B16 nodules were visualized by gp100 staining. Lungs were then analyzed for immune responses by immunostaining followed by confocal imaging. For mouse PDAC model, 5 × 10^6 KPC mouse cells were mixed with Matrigel and subcutaneously injected into C57BL/6 mice (The Jackson Laboratory). After tumors reached an average size of 80~100 mm^3, mice were intravenously treated with 1 mg/kg of PO- or PS-Gp130, PS-oligo, PS-SC-MYC, PS-MYC. or combined PS-Gp130/PS-MYC (0.5 mg/kg, 0.5 mg/kg) (Anaspec) every other day for 18 days. Control animals were treated with the equal volume of HBSS (Invitrogen, Thermo Fisher Scientific). Tumor growth was measured by a digital caliper every other day. To study the effects of the modified peptides at protein and gene levels, mice were euthanized at the endpoint as indicated.

KPC mouse PDAC cells = test: KPC mouse PDAC tumor model in C57BL/6 mice; assay type: in vivo; settings: KPC s.c. in C57BL/6 mice, i.v. 1 mg/kg every other day for 18 days (combination 0.5 mg/kg each), n = 5
Description: SD is shown. […] SD is shown.
as §1, with “Control mice were treated with HBSS. Lungs were excised from the mice, and B16 nodules were visualized by gp100 staining.” left out, “For mouse PDAC model, 5 × 10^6 KPC mouse cells were mixed with Matrigel and subcutaneously injected into C57BL/6 mice (The Jackson Laboratory). After tumors reached an average size of 80~100 mm^3, mice were intravenously treated with 1 mg/kg of PO- or PS-Gp130, PS-oligo, PS-SC-MYC, PS-MYC. or combined PS-Gp130/PS-MYC (0.5 mg/kg, 0.5 mg/kg) (Anaspec) every other day for 18 days. Control animals were treated with the equal volume of HBSS (Invitrogen, Thermo Fisher Scientific).” left out, “To study the effects of the modified peptides at protein and gene levels, mice were euthanized at the endpoint as indicated.” left out

| Substance | p53 promoter activity (p53 promoter) | metastatic lung nodules (B16 melanoma; B16 i.v. in C57BL/6 mice, 1 mg/kg i.v. every other day, gp100 staining, n = 5) | STAT3 activation (p-STAT3) in tumor cells and CD4+ T cells (B16 melanoma; B16 lung nodules, IF staining, confocal) | infiltration of CD69+ activated CD8+ T cells in metastatic B16 lung nodules (B16 melanoma; IF staining, confocal) | tumor-associated FoxP3+CD4+ T cells (regulatory T cells) (B16 melanoma; IF staining, confocal) | PDAC tumor growth (KPC mouse PDAC cells) |
| --- | --- | --- | --- | --- | --- | --- |
| PDIPKEEAFGK685(Ac)YCRPESQEHPC-linker-T*C*C*A*T*G*A*G*C*T*T*C*C*T*G*A*T*G*C*T [PS-acet.-STAT3 peptide] | significant increase | striking reduction | significantly decreased | increased | concomitantly reduced | – |
| PS-Gp130: PS-conjugated Gp130 peptide (amino acids 901–910) with phospho-Tyr905 (MPKS[pY]LPQTV; also: phosphorothioate oligonucleotide conjugate; UniProt P40189 901-910, looked up, fragment) | – | – | – | – | – | significantly inhibited |
